Measured values taken from PubChem BioAssay AID1963449 (Molecular Pharmacology Branch, DTP, NCI, 2024).
“And” between values parts separate entries of the source, which are not always exact repeats. Equal entries are not always repeated.

System: 596521-263-R-J1-PDC complex spheroid growth
Assay: Anticancer human tumor 596521-263-R-J1-PDC patient-derived soft tissue sarcoma cell line growth inhibition [Asc]
Conditions: for viability, T/C: stronger effect = lower value
Outline: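 Stromal components (HUVEC and hMSC) are co-assembled with the cancer cells into multicellular spheroids. Drugs are then added singly or paired, at concentrations falling by half-log increments from a clinically achievable maximum, capped at 10 microM without known Cmax.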
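Note: spheroids exposed to compounds for 7 days.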

C#Cc1c(F)ccc2cc(O)cc(-c3ncc4c(N5CC6CCC(C5)N6)nc(OCC56CCCN5CC(F)C6)nc4c3F)c12 (stereo unspecified) + CNC(C)C(=O)NC1CN(S(=O)(=O)c2cccc(S(=O)(=O)N3CCC4CCC(C(=O)NC(c5ccccc5)c5ccccc5)N4C(=O)C(NC(=O)C(C)NC)C3)c2)CCC2CCC(C(=O)NC(c3ccccc3)c3ccccc3)N2C1=O
IC50 (curve of first compound, second compound 0.00316 µM): > 10 µM
IC50 (curve of first compound, second compound 0.01 µM): > 10 µM
IC50 (curve of first compound, second compound 0.0316 µM): > 10 µM
IC50 (curve of first compound, second compound 0.1 µM): > 10 µM
IC50 (curve of first compound, second compound 0.316 µM): > 10 µM
IC50 (curve of first compound, second compound 1 µM): > 10 µM
viability, T/C (second compound 0.00316 µM, first compound 0.0316 µM): 93.7%
viability, T/C (second compound 0.00316 µM, first compound 0.1 µM): 89.4%
viability, T/C (second compound 0.00316 µM, first compound 0.316 µM): 87.3%
viability, T/C (second compound 0.00316 µM, first compound 1 µM): 105%
viability, T/C (second compound 0.00316 µM, first compound 3.16 µM): 94.6%
viability, T/C (second compound 0.00316 µM, first compound 10 µM): 81.8%
viability, T/C (second compound 0.01 µM, first compound 0.0316 µM): 99.4%
viability, T/C (second compound 0.01 µM, first compound 0.1 µM): 106%
viability, T/C (second compound 0.01 µM, first compound 0.316 µM): 86.7%
viability, T/C (second compound 0.01 µM, first compound 1 µM): 92.9%
viability, T/C (second compound 0.01 µM, first compound 3.16 µM): 97.1%
viability, T/C (second compound 0.01 µM, first compound 10 µM): 64.4%
viability, T/C (second compound 0.0316 µM, first compound 0.0316 µM): 90.2%
viability, T/C (second compound 0.0316 µM, first compound 0.1 µM): 87.1%
viability, T/C (second compound 0.0316 µM, first compound 0.316 µM): 99.6%
viability, T/C (second compound 0.0316 µM, first compound 1 µM): 102%
viability, T/C (second compound 0.0316 µM, first compound 3.16 µM): 90.6%
viability, T/C (second compound 0.0316 µM, first compound 10 µM): 61.1%
viability, T/C (second compound 0.1 µM, first compound 0.0316 µM): 91.5%
viability, T/C (second compound 0.1 µM, first compound 0.1 µM): 70.6%
viability, T/C (second compound 0.1 µM, first compound 0.316 µM): 83.5%
viability, T/C (second compound 0.1 µM, first compound 1 µM): 80%
viability, T/C (second compound 0.1 µM, first compound 3.16 µM): 84%
viability, T/C (second compound 0.1 µM, first compound 10 µM): 72.3%
viability, T/C (second compound 0.316 µM, first compound 0.0316 µM): 80.3%
viability, T/C (second compound 0.316 µM, first compound 0.1 µM): 82.8%
viability, T/C (second compound 0.316 µM, first compound 0.316 µM): 91.2%
viability, T/C (second compound 0.316 µM, first compound 1 µM): 94.8%
viability, T/C (second compound 0.316 µM, first compound 3.16 µM): 78.7%
viability, T/C (second compound 0.316 µM, first compound 10 µM): 62.5%
viability, T/C (second compound 1 µM, first compound 0.0316 µM): 74.7%
viability, T/C (second compound 1 µM, first compound 0.1 µM): 74.5%
viability, T/C (second compound 1 µM, first compound 0.316 µM): 81.2%
viability, T/C (second compound 1 µM, first compound 1 µM): 92.6%
viability, T/C (second compound 1 µM, first compound 3.16 µM): 83.3%
viability, T/C (second compound 1 µM, first compound 10 µM): 58.7%

COc1c(OCCCN2CCOCC2)ccc2c3n(c(=NC(=O)c4cnc(N)nc4)nc12)CCN3 + CCN1C(C(=O)NC23CCC(C(=O)O)(CC2)CC3)C(c2cccc(Cl)c2F)C2(C(=O)Nc3cc(Cl)ccc32)C12CCCCC2
IC50 (curve of first compound, second compound 0.00949 µM): 0.199 µM
IC50 (curve of first compound, second compound 0.03 µM): 0.182 µM
IC50 (curve of first compound, second compound 0.0949 µM): 0.159 µM
IC50 (curve of first compound, second compound 0.3 µM): 0.212 µM
IC50 (curve of first compound, second compound 0.949 µM): 0.105 µM
IC50 (curve of first compound, second compound 3 µM): 0.125 µM
viability, T/C (second compound 0.00949 µM, first compound 0.00316 µM): 93.1%
viability, T/C (second compound 0.00949 µM, first compound 0.01 µM): 90.5%
viability, T/C (second compound 0.00949 µM, first compound 0.0316 µM): 70.4%
viability, T/C (second compound 0.00949 µM, first compound 0.1 µM): 67.6%
viability, T/C (second compound 0.00949 µM, first compound 0.316 µM): 39.1%
viability, T/C (second compound 0.00949 µM, first compound 1 µM): 24%
viability, T/C (second compound 0.03 µM, first compound 0.00316 µM): 97.5%
viability, T/C (second compound 0.03 µM, first compound 0.01 µM): 96.7%
viability, T/C (second compound 0.03 µM, first compound 0.0316 µM): 80%
viability, T/C (second compound 0.03 µM, first compound 0.1 µM): 59.4%
viability, T/C (second compound 0.03 µM, first compound 0.316 µM): 42%
viability, T/C (second compound 0.03 µM, first compound 1 µM): 34.9%
viability, T/C (second compound 0.0949 µM, first compound 0.00316 µM): 87.7%
viability, T/C (second compound 0.0949 µM, first compound 0.01 µM): 96.3%
viability, T/C (second compound 0.0949 µM, first compound 0.0316 µM): 78.3%
viability, T/C (second compound 0.0949 µM, first compound 0.1 µM): 59.1%
viability, T/C (second compound 0.0949 µM, first compound 0.316 µM): 37.5%
viability, T/C (second compound 0.0949 µM, first compound 1 µM): 31.4%
viability, T/C (second compound 0.3 µM, first compound 0.00316 µM): 99.9%
viability, T/C (second compound 0.3 µM, first compound 0.01 µM): 83.8%
viability, T/C (second compound 0.3 µM, first compound 0.0316 µM): 79.9%
viability, T/C (second compound 0.3 µM, first compound 0.1 µM): 64.8%
viability, T/C (second compound 0.3 µM, first compound 0.316 µM): 39.9%
viability, T/C (second compound 0.3 µM, first compound 1 µM): 29.9%
viability, T/C (second compound 0.949 µM, first compound 0.00316 µM): 103%
viability, T/C (second compound 0.949 µM, first compound 0.01 µM): 97.3%
viability, T/C (second compound 0.949 µM, first compound 0.0316 µM): 75.3%
viability, T/C (second compound 0.949 µM, first compound 0.1 µM): 50.9%
viability, T/C (second compound 0.949 µM, first compound 0.316 µM): 36.1%
viability, T/C (second compound 0.949 µM, first compound 1 µM): 30.1%
viability, T/C (second compound 3 µM, first compound 0.00316 µM): 87.5%
viability, T/C (second compound 3 µM, first compound 0.01 µM): 85.4%
viability, T/C (second compound 3 µM, first compound 0.0316 µM): 78.2%
viability, T/C (second compound 3 µM, first compound 0.1 µM): 52.3%
viability, T/C (second compound 3 µM, first compound 0.316 µM): 40.1%
viability, T/C (second compound 3 µM, first compound 1 µM): 38.7%

O=C(c1ccc(F)c(F)c1Nc1ccc(I)cc1F)N1CC(O)([C@@H]2CCCCN2)C1
viability, T/C (compound 0.00316 µM): 107% and 99.7% and 89.7%
viability, T/C (compound 0.01 µM): 95.2% and 94.7% and 92%
viability, T/C (compound 0.0316 µM): 98.4% and 88.8% and 92.9%
viability, T/C (compound 0.1 µM): 75.9% and 77.3% and 84.2%
viability, T/C (compound 0.316 µM): 50.1% and 56% and 54.9%
viability, T/C (compound 1 µM): 34.9% and 49.8% and 34%
IC50 (curve of compound): 0.314 µM and 0.867 µM and 0.412 µM
